Data from publication PMC4266452, “Prediction of Thorough QT study results using action potential simulations based on ion channel screens” (Journal of Pharmacological and Toxicological Methods, 2014).
Where “and” joins values, the source holds several entries; their conditions need not be identical. Equal entries are not always repeated. Where two headings read alike, the source gives them in different places.

Columns and labels:
[1] = tested on: QT interval on the body surface ECG; conditions: cited from earlier work; for QT shortening in the TQT study: range over the three drugs
Kv4.3/KChIP2.2 = target: T1, Kv4.3/KChIP2.2 (Homo sapiens, UniProt Q9UK17); test: IonWorks Quattro Kv4.3/KChIP2.2 screen (AstraZeneca, Q); format: cell-based; conditions: IonWorks Quattro, −log10 of IC50 in Molar, Hill n = 1
T1 sequence (Q9UK17 1-655): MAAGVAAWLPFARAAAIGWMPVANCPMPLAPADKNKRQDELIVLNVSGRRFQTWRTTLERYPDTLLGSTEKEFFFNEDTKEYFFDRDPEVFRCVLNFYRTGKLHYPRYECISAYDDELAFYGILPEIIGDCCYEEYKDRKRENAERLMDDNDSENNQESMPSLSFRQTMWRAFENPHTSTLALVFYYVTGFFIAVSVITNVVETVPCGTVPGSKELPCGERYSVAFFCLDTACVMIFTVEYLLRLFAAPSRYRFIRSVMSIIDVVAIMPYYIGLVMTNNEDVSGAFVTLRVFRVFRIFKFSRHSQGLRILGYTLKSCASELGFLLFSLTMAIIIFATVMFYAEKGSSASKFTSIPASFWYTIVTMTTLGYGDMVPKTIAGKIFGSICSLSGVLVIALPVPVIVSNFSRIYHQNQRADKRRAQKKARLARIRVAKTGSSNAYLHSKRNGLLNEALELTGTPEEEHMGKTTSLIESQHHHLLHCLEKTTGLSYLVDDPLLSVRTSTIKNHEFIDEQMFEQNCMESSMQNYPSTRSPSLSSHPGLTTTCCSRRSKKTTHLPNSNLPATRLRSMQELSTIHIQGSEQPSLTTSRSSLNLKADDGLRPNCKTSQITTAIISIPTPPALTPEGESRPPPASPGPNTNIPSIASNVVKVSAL
T1 sequence (Q9NS61 1-270 partner): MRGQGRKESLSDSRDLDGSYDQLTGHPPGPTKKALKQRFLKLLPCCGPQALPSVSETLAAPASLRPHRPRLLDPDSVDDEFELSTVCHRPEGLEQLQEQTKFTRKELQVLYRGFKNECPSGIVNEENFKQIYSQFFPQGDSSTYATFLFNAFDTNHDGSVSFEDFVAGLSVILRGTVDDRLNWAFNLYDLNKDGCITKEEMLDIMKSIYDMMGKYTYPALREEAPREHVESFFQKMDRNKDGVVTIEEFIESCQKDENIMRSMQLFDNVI

[2] = Plasma concentration (Cmax) during the TQT study, total and calculated free; format: in vivo, human
KCNQ1/MinK = KCNQ1/MinK (Homo sapiens, UniProt P51787); test: IonWorks Quattro KCNQ1/MinK screen (AstraZeneca, Q); conditions: −log10 of IC50 in Molar, Hill n = 1, 0.0 = pIC50 ≤ 0 fitted
Chain of KCNQ1/MinK (P51787 whole entry): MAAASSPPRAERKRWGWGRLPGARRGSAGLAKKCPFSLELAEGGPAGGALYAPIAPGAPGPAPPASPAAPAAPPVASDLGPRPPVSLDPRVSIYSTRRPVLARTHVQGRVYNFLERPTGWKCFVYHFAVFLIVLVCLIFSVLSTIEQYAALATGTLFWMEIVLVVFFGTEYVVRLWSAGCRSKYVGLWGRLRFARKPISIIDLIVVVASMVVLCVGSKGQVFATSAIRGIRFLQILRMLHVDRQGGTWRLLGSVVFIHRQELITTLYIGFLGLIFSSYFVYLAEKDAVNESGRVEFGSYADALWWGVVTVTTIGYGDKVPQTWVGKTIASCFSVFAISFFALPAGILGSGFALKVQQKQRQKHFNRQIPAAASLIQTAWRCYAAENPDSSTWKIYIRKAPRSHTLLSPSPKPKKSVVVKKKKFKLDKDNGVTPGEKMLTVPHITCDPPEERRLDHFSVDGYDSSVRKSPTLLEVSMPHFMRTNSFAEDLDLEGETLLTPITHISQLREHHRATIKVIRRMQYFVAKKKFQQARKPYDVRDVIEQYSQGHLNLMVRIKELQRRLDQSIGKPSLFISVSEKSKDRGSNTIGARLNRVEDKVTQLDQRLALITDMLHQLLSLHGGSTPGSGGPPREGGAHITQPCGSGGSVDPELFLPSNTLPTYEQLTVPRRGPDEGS

[3] = ref Gintant (2011), cited from earlier work
[4] = ref Gintant (2011); cited from earlier work
NaV1.5 [5] = target: T2, NaV1.5 (Homo sapiens, UniProt Q14524); test: IonWorks Quattro NaV1.5 screen (AstraZeneca, Q)
T2 sequence (Q14524 whole entry): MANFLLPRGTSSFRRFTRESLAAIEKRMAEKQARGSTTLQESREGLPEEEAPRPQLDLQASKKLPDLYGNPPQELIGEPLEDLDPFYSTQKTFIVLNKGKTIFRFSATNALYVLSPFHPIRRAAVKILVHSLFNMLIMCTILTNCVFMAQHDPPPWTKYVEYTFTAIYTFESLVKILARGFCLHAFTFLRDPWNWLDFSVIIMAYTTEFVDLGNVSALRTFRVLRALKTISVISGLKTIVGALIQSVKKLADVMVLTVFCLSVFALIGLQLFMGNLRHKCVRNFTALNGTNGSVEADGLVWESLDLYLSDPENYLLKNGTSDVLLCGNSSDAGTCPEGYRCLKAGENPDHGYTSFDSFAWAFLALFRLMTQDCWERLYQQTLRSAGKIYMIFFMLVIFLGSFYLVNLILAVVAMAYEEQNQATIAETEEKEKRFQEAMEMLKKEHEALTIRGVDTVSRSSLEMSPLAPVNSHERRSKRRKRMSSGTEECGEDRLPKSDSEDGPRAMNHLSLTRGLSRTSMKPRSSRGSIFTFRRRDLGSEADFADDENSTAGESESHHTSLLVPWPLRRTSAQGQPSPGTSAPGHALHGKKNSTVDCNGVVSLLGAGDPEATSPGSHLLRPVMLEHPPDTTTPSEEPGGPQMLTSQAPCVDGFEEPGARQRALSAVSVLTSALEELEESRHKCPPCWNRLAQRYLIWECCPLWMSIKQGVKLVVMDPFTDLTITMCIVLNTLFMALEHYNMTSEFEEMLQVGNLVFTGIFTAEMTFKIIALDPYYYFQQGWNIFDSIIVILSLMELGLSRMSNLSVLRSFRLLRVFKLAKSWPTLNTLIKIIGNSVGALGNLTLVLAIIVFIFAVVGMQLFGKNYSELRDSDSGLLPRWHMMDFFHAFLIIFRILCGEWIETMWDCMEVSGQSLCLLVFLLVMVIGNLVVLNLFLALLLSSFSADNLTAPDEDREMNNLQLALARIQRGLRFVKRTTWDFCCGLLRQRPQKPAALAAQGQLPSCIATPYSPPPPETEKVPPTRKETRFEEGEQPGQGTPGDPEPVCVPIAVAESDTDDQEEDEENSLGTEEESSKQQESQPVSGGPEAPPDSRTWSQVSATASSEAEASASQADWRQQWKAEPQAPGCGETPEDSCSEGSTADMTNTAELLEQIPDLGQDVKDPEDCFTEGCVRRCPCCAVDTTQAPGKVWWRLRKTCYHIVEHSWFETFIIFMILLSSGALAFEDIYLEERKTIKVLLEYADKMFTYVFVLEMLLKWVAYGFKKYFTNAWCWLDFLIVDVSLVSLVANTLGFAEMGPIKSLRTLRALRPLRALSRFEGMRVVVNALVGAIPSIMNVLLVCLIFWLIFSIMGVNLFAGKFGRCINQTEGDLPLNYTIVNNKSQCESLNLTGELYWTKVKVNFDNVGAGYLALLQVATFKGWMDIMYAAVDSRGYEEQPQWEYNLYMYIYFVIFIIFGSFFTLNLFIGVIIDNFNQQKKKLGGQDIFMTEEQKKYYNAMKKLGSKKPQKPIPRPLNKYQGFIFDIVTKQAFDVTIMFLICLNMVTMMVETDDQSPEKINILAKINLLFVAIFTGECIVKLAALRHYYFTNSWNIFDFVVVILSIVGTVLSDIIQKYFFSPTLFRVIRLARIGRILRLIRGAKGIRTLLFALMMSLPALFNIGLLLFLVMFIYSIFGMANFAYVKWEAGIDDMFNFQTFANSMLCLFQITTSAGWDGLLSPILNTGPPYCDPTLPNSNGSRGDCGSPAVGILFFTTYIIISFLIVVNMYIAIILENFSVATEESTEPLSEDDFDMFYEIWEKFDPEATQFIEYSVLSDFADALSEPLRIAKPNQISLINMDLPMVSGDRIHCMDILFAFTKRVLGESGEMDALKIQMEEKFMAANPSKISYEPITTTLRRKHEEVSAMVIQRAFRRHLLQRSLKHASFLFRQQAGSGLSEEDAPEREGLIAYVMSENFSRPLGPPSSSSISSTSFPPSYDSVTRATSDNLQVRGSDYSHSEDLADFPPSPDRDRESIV

NaV1.5 [6] = target: T2, NaV1.5; test: Second IonWorks Quattro NaV1.5 screen (GSK, Q2)
CaV1.2 = CaV1.2 (Homo sapiens, UniProt Q13936); test: IonWorks Quattro CaV1.2 screen (AstraZeneca, Q)
[7] = Cmax high, calculated from ng/mL and molecular weight
[8] = Cmax high, calculated with PPB and molecular weight
[9] = Cmax low, calculated from ng/mL and molecular weight
[10] = 40 mg, ref FDA product label review
[11] = first (lower) of two lines, not labelled low/high
[12] = second (higher) of two lines, not labelled low/high
[13] = Cmax low, calculated with PPB and molecular weight
[14] = IonWorks Quattro, −log10 of IC50 in Molar, Hill n = 1, 0.0 = pIC50 ≤ 0 fitted

SMILES	Cmax FREE ([2]; Cmax high, calculated with PPB) [ng/mL]	Cmax FREE [2, 8] [nM]	Free plasma concentration ([2]; Cmax low) [nM]	Cmax FREE ([2]; Cmax low, calculated with PPB) [ng/mL]	Cmax TOTAL ([3]; Cmax high) [ng/mL]	Cmax TOTAL ([3]; Cmax low) [ng/mL]	PPB (percent plasma binding) [4]	Cmax FREE [2, 13] [nM]	other results
COCCCOc1cc(C[C@@H](C[C@H](N)[C@@H](O)C[C@H](C(=O)NCC(C)(C)C(N)=O)C(C)C)C(C)C)ccc1OC [ALISKIRIN]	–	–	–	–	–	–	–	–	relationship between exposure and QTc in words (COMMENTS) ([1]; ref Gintant (2011)): Lack of relationship between aliskirin exposure and QTcF
COc1cc2nc(N(C)CCCNC(=O)C3CCCO3)nc(N)c2cc1OC (centres unmarked) [Alfuzosin]	4.05	7.74	1.529	0.80	40.5	8	90% ppb	–	Kv4.3 pIC50 (Q) (Kv4.3/KChIP2.2; 0.0 = pIC50 ≤ 0 fitted): 3.0; Free plasma concentration ([2]; Cmax high): 7.739 nM; Cmax TOTAL [2, 7]: 77.39 nM; Cmax TOTAL [2, 9]: 15.29 nM; estimated TQT concentration (free plasma) ([2]; largest dose in the TQT study): < 10^–2 μM; KCNQ1 pIC50 (Q) (KCNQ1/MinK): 3.9; QTc change, individual correction [1, 10]: 4.3 ms; QTc change, population correction [1, 10]: 4.2 ms
NC(=O)C(c1ccccc1)(c1ccccc1)[C@@H]1CCN(CCc2ccc3c(c2)CCO3)C1 [Darifenacin]	–	–	–	–	–	–	98% PPB	–	Kv4.3 pIC50 (Q) (Kv4.3/KChIP2.2; 0.0 = pIC50 ≤ 0 fitted): 4.9; Cmax FREE [2, 11]: 0.112 ng/mL and 0.2207 nM; Cmax TOTAL [2, 11]: 11.0345 nM; Free plasma concentration [2, 11]: 0.2207 nM; Cmax FREE [2, 12]: 1.266 ng/mL and 2.495 nM; Cmax TOTAL [2, 12]: 124.729 nM; Free plasma concentration [2, 12]: 2.495 nM; Cmax TOTAL [3, 11]: 5.6 ng/mL; Cmax TOTAL [3, 12]: 63.3 ng/mL; QT shortening in the TQT study ([1]; ref Gintant (2011)): 2 to 7 ms
Cc1nc(Nc2ncc(C(=O)Nc3c(C)cccc3Cl)s2)cc(N2CCN(CCO)CC2)n1.O [Dasatinib]	10.52	20.790	7.905	4	263	100	96% PPB	7.905	Kv4.3 pIC50 (Q) (Kv4.3/KChIP2.2; […]): 3.5; Free plasma concentration ([2]; Cmax high): 20.79 nM; Cmax TOTAL [2, 7]: 519.742 nM; Cmax TOTAL [2, 9]: 197.621 nM
O=C(O)c1ccc(-n2nc(-c3ccccc3O)nc2-c2ccccc2O)cc1 [Deferasirox]	–	–	–	–	–	–	99.5%	–	NaV1.5 pIC50 (Q) (NaV1.5 [5]; [14]): 4.1; Cmax FREE ([2]; Cmax 40mg/kg): 995 nM; Cmax TOTAL ([2]; Cmax 40mg/kg): 199000 nM; Free plasma concentration ([2]; Cmax 40mg/kg): 995 nM; Cmax TOTAL ([3]; Cmax TQT, 40mg/kg, comes from docs): 199 comes from docs for Cmax uM; NaV1.5 pIC50 (Q2) (NaV1.5 [6]; second independent Quattro screening, −log10 of IC50 in Molar, 0.0 = pIC50 ≤ 0 fitted): 3.3; CaV1.2 pIC50 (Q) (CaV1.2; [14]): 3.0
CN(CCOc1ccc(NS(C)(=O)=O)cc1)CCc1ccc(NS(C)(=O)=O)cc1 [Dofetilide]	–	–	–	–	–	–	–	–	plasma concentration ([2]; end of the line in nM): 9.5 nM; plasma concentration ([2]; end of the line in ng/mL): 4.195 nM; therapeutic range, lower value ([2]; line in ng/mL): 0.1766 ng/mL; therapeutic range, upper value ([2]; line in ng/mL): 0.8832 ng/mL; total plasma conc ([2]; line in ng/mL): 4.1952 ng/mL; total plasma conc [3]: 9.5 nM
C[C@@H](O)[C@H]1C(=O)N2C(C(=O)O)=C(S[C@@H]3CN[C@H](CNS(N)(=O)=O)C3)[C@H](C)[C@H]12 [Doripenem]	41355	98346.2	45894.9	19299	45000	21000	8.1% PPB	45894.9	Free plasma concentration ([2]; Cmax high): 98346.2 nM; CaV1.2 pIC50 (Q) (CaV1.2): 5.7
Cc1cc(C#N)cc(C)c1Oc1nc(Nc2ccc(C#N)cc2)nc(N)c1Br [Etravirine]	1.322	3.037	–	0.921	1322	921	99.9% PPB	2.116	Kv4.3 pIC50 (Q) (Kv4.3/KChIP2.2; 0.0 = pIC50 ≤ 0 fitted): 2.5; KCNQ1 pIC50 (Q) (KCNQ1/MinK): 2.9; mean Cmax ([3]; supratherapeutic / highest dose of the TQT study): 1378 ng/mL; QTc change (QTcF) ([1]; TQT study, highest dose, ref Gintant (2011)): -5.70 ms; QT shortening in the TQT study ([1]; ref Gintant (2011)): 2 to 7 ms; TQT study outcome in words (COMMENTS) ([1]; ref Gintant (2011)): QT shortening
COc1c(N2C[C@@H]3CCCN[C@@H]3C2)c(F)cc2c(=O)c(C(=O)O)cn(C3CC3)c12 [Moxifloxacin]	–	–	2745	1257.030	–	2793.4	55% PPB	–	–
Cc1cn(-c2cc(NC(=O)c3ccc(C)c(Nc4nccc(-c5cccnc5)n4)c3)cc(C(F)(F)F)c2)cn1 [Nilotinib]	–	–	83.86	45.200	–	[…]	98% PPB	83.861	NaV1.5 pIC50 (Q) (NaV1.5 [5]): 3.0; Cmax TOTAL [2, 9]: 4193.028 nM; NaV1.5 pIC50 (Q2) (NaV1.5 [6]): […]
O=C1c2cccc3c2[C@H](CCC3)CN1[C@@H]1CN2CCC1CC2 [Palonosetron]	2.128	6.393	2.91	0.9686	5.6	2.549	62%	2.910	Free plasma concentration ([2]; Cmax high): 6.393 nM; Cmax TOTAL [2, 7]: 16.823 nM; Cmax TOTAL [2, 9]: 7.658 nM; TQT study outcome in words (COMMENTS) ([1]; ref Gintant (2011)): Product labeling: no significant effect on any ECG interval
CCCc1nn(C)c2c(=O)[nH]c(-c3cc(S(=O)(=O)N4CCN(C)CC4)ccc3OCC)nc12 [Sildenafil]	60.76	128.024	–	7.12	–	–	96%	15.0021	Kv4.3 pIC50 (Q) (Kv4.3/KChIP2.2; 0.0 = pIC50 ≤ 0 fitted): 3.3; NaV1.5 pIC50 (Q) (NaV1.5 [5]): 3.3; NaV1.5 pIC50 (Q2) (NaV1.5 [6]): 2.9
O=C(O[C@H]1CN2CCC1CC2)N1CCc2ccccc2[C@@H]1c1ccccc1 [Solifenacin]	–	–	–	–	–	–	98% PPB	–	–
CC[C@@H](c1cccc(O)c1)[C@@H](C)CN(C)C [TAPENTADOL]	–	–	–	–	–	–	–	–	TQT study outcome in words (COMMENTS) ([1]; ref Gintant (2011)): 90% Confidence interval; study considered negative
